Assay results from ChEMBL document CHEMBL1201862, “PubChem BioAssay data set” (2004).
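All cell lines were grown in 96-well plates and treated with compound for 48 hours. GI50 marks 50% less growth.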 The source made the active and inactive calls. Cut-off read from the data, not from the text of the source: active = GI50 up to about 1.1 µM and inactive = higher.

Columns and labels:
Assay in all cases: NCI anticancer screen, dose series, 48 h
[1] = tested on: 786-0
[2] = tested on: CCRF-CEM
[3] = tested on: COLO 205
[4] = tested on: DU-145
[5] = tested on: Hs-578T
[6] = tested on: IGROV-1
[7] = tested on: K562
[8] = tested on: KM12
[9] = tested on: LOX IMVI
[10] = tested on: NCI-H23
[11] = tested on: RXF 393
[12] = tested on: SF-295
[13] = tested on: SF-539
[14] = tested on: SK-MEL-5
[15] = tested on: SNB-19
[16] = tested on: SW-620
[17] = tested on: U-251
[18] = tested on: UO-31
[19] = tested on: OVCAR-3

Measured: GI50

CCCCCC/C=C\CCCCCCCCCc1cccc(OC)c1O
inactive: [1] > 100 µM | [2] > 100 µM | [3] > 100 µM | [4] > 100 µM | [5] > 100 µM | [6] > 100 µM | [7] > 100 µM | [8] 80 µM | [9] > 100 µM | [10] 86.9 µM | [11] 67.6 µM | [12] > 100 µM | [13] > 100 µM | [14] > 100 µM | [15] > 100 µM | [16] > 100 µM | [17] > 100 µM | [18] > 100 µM

[O-][n+]1onc(-c2ccccc2)c1-c1no[n+]([O-])c1-c1c(-c2ccccc2)no[n+]1[O-]
inactive: [1] 8.93 µM | [2] 5.18 µM | [3] 6.37 µM | [4] 9.89 µM | [5] 54.1 µM | [6] 8.83 µM | [7] 2.51 µM | [8] 7.43 µM | [9] 2.82 µM | [10] 3.72 µM | [19] 5.71 µM | [11] 3.35 µM | [12] 24.8 µM | [13] 21 µM | [14] 14.8 µM | [15] 27 µM | [16] 4.1 µM | [18] 7.4 µM

N#Cc1c(=O)c2cccnc2n2c1[nH]c1ccccc12
inactive: [1] 32.1 µM | [2] > 100 µM | [3] > 100 µM | [4] > 100 µM | [5] 21.6 µM | [6] > 100 µM | [7] > 100 µM | [8] 80.7 µM | [9] > 100 µM | [10] 38.7 µM | [19] 78 µM | [11] 74.1 µM | [12] 49.3 µM | [13] 55.8 µM | [15] 57.7 µM | [16] > 100 µM | [17] 38.6 µM | [18] 48.6 µM

CCC(=O)Nc1ccc(NS(=O)(=O)c2ccc(Cl)cc2)cc1
inactive: [1] > 100 µM | [2] > 100 µM | [3] > 100 µM | [4] > 100 µM | [5] > 100 µM | [6] > 100 µM | [7] 29.9 µM | [8] > 100 µM | [9] > 100 µM | [10] > 100 µM | [19] 43.5 µM | [11] > 100 µM | [12] 45.4 µM | [13] > 100 µM | [14] 47.6 µM | [15] > 100 µM | [16] > 100 µM | [18] > 100 µM

COc1ccc(Cc2nc3cc(C(F)(F)F)ccc3n2C[C@@H]2CCCN3CCCCC23)cc1 (some centres undefined)
inactive: [1] 5.55 µM | [2] 11.1 µM | [3] 5.36 µM | [4] 11 µM | [5] 19.9 µM | [6] 5.42 µM | [7] 13.7 µM | [8] 13.5 µM | [9] 10.5 µM | [10] 14.6 µM | [19] 5.77 µM | [11] 5.4 µM | [12] 5.82 µM | [13] 13.5 µM | [14] 6.92 µM | [15] 13.4 µM | [16] 21.3 µM | [17] 13.2 µM

Cn1c(=O)sc2cc(C(=S)N3CCCCC3)ccc21
inactive: [1] > 100 µM | [2] 16.5 µM | [3] 57.9 µM | [4] > 100 µM | [5] 30.8 µM | [6] 23.2 µM | [7] 47.9 µM | [8] > 100 µM | [9] 81.5 µM | [10] > 100 µM | [19] 69.2 µM | [11] 38.8 µM | [12] 92.7 µM | [13] 54.5 µM | [14] > 100 µM | [15] > 100 µM | [16] > 100 µM | [17] 41.8 µM

O=C1Nc2ccccc2Cn2c1cc1oc(-c3ccccc3)cc12
inactive: [1] 20.4 µM | [2] > 100 µM | [3] > 100 µM | [4] 17.3 µM | [5] 10.9 µM | [6] 29.8 µM | [7] 50.2 µM | [8] 95.1 µM | [9] > 100 µM | [10] 86.9 µM | [19] 19.2 µM | [11] 21.4 µM | [12] 17.7 µM | [13] 29.7 µM | [14] 7.57 µM | [15] 22.5 µM | [16] > 100 µM | [17] 16 µM

CCCNC(=S)N/C=C1/C(=O)Oc2ccccc2C1=O
inactive: [1] > 100 µM | [2] > 100 µM | [3] > 100 µM | [4] 54.1 µM | [5] 50.4 µM | [6] 89.9 µM | [8] > 100 µM | [9] > 100 µM | [10] > 100 µM | [19] > 100 µM | [11] 60.4 µM | [12] > 100 µM | [13] > 100 µM | [14] > 100 µM | [15] > 100 µM | [16] > 100 µM | [17] > 100 µM | [18] 28.4 µM
